Values of other authors, collected in patent US20250049951A1, “NUCLEIC ACID COMPOSITIONS AND USES THEREOF” (SURGE Therapeutics, Inc., priority 2021, published 2025).
Several values for one entry are separate records, joined by “and”; a condition that tells them apart may be missing. Equal entries are not always repeated.

Columns and labels:
TLR7 = molecular target: T1, TLR7 (Homo sapiens, UniProt Q9NYK1)
T1 construct: expressed in transfected cells; host or cells: HEK293
T1 sequence (Q9NYK1 27-1049): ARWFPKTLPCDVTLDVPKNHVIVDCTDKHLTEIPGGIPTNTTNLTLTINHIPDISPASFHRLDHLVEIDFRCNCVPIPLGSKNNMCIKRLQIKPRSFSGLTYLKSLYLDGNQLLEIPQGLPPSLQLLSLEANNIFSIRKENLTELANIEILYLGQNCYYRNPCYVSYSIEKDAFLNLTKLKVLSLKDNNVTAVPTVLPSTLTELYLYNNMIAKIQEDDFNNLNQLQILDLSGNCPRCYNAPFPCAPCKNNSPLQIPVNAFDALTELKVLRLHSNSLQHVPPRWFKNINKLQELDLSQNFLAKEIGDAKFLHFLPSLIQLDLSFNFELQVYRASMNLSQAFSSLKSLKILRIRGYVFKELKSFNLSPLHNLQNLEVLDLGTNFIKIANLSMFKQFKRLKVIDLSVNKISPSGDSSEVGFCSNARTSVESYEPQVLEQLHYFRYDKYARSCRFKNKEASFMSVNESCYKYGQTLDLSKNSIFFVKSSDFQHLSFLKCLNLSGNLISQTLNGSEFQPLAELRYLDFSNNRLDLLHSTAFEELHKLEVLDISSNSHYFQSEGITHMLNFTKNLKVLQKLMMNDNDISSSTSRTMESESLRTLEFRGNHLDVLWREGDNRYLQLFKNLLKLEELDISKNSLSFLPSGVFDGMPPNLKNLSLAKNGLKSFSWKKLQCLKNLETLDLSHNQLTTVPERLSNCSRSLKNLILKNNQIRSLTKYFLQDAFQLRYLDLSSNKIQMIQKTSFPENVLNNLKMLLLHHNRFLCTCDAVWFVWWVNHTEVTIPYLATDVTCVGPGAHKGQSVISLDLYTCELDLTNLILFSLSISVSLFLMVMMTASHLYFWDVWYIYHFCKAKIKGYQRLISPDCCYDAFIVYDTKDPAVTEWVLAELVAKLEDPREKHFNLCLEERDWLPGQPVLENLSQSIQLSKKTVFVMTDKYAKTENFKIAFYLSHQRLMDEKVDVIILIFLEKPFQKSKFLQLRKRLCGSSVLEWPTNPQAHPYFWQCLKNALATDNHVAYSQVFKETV

TLR8 = molecular target: T2, TLR8 (Homo sapiens, UniProt Q9NR97); details: TLR8-transfected HEK293 cells
T2 construct: expressed in transfected cells; host or cells: HEK293
T2 sequence (Q9NR97 27-1041): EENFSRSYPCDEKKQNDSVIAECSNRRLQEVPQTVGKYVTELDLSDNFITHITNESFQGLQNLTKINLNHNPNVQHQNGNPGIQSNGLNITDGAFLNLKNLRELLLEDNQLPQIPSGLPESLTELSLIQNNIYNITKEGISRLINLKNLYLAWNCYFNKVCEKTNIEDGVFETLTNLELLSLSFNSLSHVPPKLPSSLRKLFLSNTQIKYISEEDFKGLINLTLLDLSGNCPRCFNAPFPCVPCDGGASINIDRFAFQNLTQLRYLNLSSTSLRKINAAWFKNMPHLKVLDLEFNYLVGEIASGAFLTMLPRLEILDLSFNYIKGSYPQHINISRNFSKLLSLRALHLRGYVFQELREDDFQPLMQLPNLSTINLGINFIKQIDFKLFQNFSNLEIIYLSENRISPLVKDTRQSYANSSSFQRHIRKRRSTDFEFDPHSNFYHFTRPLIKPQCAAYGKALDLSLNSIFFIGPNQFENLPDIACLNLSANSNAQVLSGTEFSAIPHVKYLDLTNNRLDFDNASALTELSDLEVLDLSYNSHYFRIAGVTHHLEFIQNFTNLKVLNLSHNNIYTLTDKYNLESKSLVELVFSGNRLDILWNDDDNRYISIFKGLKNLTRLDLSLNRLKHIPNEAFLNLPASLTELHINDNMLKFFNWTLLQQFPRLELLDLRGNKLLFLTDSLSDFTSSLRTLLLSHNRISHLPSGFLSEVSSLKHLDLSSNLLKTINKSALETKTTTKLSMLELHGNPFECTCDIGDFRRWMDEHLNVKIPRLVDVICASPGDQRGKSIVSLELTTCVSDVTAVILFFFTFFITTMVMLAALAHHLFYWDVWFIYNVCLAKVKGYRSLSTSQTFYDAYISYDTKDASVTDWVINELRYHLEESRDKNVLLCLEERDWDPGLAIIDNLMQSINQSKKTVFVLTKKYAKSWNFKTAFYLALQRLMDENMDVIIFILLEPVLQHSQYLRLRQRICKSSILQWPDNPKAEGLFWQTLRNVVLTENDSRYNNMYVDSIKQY

amount required to activate NF-κB in TLR7- relative to TLR8-transfected HEK293 cells (TLR7; times more than the 0.4 μM needed in TLR8 cells) [times]	concentration inducing NF-κB activation (TLR8)	concentration inducing NF-κB activation (TLR7; TLR7-transfected HEK293 cells)	water solubility [mg/mL]	potency in inducing NF-κB activation relative to CL075 (TLR8; more potent than CL075) [×]	potency in inducing NF-κB activation relative to R848 (TLR8; more potent than R848) [×]	Compound
~10	0.4 μM and 0.1 μg/ml					CCCc1nc2c(N)nc3ccccc3c2s1 [CL075]
	4 μM and 1 μg/ml	0.4 μM and 0.1 μg/ml	≥ 20			CCOCC1Nc2c(N)nc3ccccc3c2N1 (stereo not shown) [CL097]
				~25	~50	CCOC(=O)C1=Cc2ccc(-c3cccc(C#N)c3)cc2N=C(N)C1 [TL8-506]
